Results taken from ChEMBL document CHEMBL1159205, “Fomitellic acids, triterpenoid inhibitors of eukaryotic DNA polymerases from a basidiomycete, Fomitella fraxinea” (J Nat Prod, 1998).
In brackets after ≈: the same amount, converted by molar mass.

How the values were obtained:
[1] = biological target: DNA polymerase beta (Rattus norvegicus) (UniProt P06766); assay: Inhibition of rat DNA polymerase beta assessed as incorporation of [3H]dTTP
Bos taurus = organism: Bos taurus; assay: Inhibition of calf DNA polymerase alpha assessed as incorporation of [3H]dTTP

MIC [1]	MIC (Bos taurus)	Structure (SMILES)
90 µM (≈ 43.8 µg/mL)	30 µM (≈ 14.6 µg/mL)	CC(C)=CCC[C@@H](C)[C@H]1CC[C@@]2(C)C3=C(CC[C@]12C)[C@]1(C)[C@@H](CC3=O)[C@@](C)(C(=O)O)[C@@H](O)C[C@H]1O
125 µM (≈ 62.8 µg/mL)	75 µM (≈ 37.7 µg/mL)	CC(C)=CCC[C@@H](C)[C@H]1CC[C@@]2(C)C3=C([C@H](O)C[C@]12C)[C@]1(C)[C@@H](CC3=O)[C@@](C)(C(=O)O)[C@@H](O)C[C@H]1O
95 µM (≈ 46.2 µg/mL)	35 µM (≈ 17 µg/mL)	CC(C)=CCC[C@@H](C)[C@H]1CC[C@@]2(C)C3=C(CC[C@]12C)[C@]1(C)[C@@H](CC3=O)[C@@](C)(C(=O)O)[C@H](O)C[C@H]1O
130 µM (≈ 67.2 µg/mL)	75 µM (≈ 38.8 µg/mL)	CO[C@@H]1C[C@]2(C)[C@@H]([C@H](C)CCC=C(C)C)CC[C@@]2(C)C2=C1[C@]1(C)[C@@H](CC2=O)[C@@](C)(C(=O)O)[C@@H](O)C[C@H]1O
